From patent publication US20060183119A1, “Method for determining predisposition to a physiological reaction in a patient” (UNIVERSITE LAVAL, priority 2002, published 2006)
Read-outs that look alike come from different tables or passages of the source.

Columns and labels:
UGT1A7*1 = target: T1, UGT1A7*1 (Homo sapiens, UniProt Q9HAW7); test: SN-38 glucuronidation by microsomes of HEK293 cells expressing UGT1A7*1; assay type: in vitro ADME; design: key to Function (SN-38G formation versus *1 allele): High: no significant difference in activity compared to *1 allele.; Low: significantly lower SN-38G formation versus *1 allele
T1 construct: expressed in transfected cells
T1 sequence (Q9HAW7 26-530): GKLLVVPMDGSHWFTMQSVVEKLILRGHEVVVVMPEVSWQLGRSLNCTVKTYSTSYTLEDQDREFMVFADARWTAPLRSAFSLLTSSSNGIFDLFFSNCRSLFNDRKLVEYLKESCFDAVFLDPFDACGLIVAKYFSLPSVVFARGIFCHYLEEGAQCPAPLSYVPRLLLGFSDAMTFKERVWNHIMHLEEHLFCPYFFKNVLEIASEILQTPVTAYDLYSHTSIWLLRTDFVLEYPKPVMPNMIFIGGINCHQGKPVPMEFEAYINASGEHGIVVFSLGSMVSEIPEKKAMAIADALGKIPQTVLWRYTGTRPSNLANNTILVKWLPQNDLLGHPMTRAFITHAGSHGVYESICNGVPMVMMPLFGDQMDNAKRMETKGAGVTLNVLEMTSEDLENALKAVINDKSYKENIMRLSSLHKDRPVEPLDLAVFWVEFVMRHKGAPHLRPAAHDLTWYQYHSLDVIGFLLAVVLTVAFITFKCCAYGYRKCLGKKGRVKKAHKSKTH
Procedure: Western blot analyses of UGT1A7 and UGT1A9 variants expressed in HEK293 cells were performed on microsomal proteins (10 μg) separated on a 10% SDS-polyacrylamide gel. After transferring the proteins, the membranes were probed with an anti-UGT1A RC-71 polyclonal antibody and with an anti-calnexin antibody. The relative levels of UGT1A9 (a) and UGT1A7 proteins (b) were determined by semi-quantitative densitometric analysis of the Enhanced chemiluminescence (ECL) image. The in vitro SN-38 activity was assessed using microsomal fractions prepared from HEK293 cells expressing the *1 and variant UGT1A9 (c) and UGT1A7 (d) alleles and incubated with 5 μM of SN-38 as described in Materials and Methods.
For the determination of Vmax and Km.

human UGT1A9*3 = target: T2, human UGT1A9*3 (Homo sapiens, UniProt O60656, M33T); test: Glucuronidation by microsomes of HEK-293 cells stably expressing UGT1A9*3
T2 sequence (O60656 26-530 M33T): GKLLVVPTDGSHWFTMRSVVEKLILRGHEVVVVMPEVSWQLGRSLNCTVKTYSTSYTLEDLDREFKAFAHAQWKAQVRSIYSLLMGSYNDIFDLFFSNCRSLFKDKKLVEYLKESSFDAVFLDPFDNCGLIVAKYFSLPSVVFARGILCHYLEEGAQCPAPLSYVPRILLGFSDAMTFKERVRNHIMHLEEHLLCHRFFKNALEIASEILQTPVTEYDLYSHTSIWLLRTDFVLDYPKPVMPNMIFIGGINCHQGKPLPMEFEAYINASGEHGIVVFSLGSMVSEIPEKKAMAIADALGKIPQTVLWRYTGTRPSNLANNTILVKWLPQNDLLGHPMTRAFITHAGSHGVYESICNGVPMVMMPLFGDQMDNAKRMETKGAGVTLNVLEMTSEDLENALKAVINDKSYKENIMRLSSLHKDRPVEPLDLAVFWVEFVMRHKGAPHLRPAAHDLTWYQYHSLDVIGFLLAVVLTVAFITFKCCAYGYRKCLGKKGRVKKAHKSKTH
Procedure: Microsomal fractions from HEK-293 cells stably expressing human UGT1A9*1, UGT1A9*2 and UGT1A9*3 were used in enzymatic assays. Reactions (100 μl volume) contained 50 mM Tris-HCl, pH 7.3, 10 mM MgCl2, 100 μg/mL phosphatidylcholine, 1 mM UDP-glucuronic acid, 40 to 60 μg of membrane protein. […] Human liver microsome were incubated in the same condition for control. Reaction was stopped by the addition of 200 μL MeOH+1% HCl 2N, followed by centrifugation at 14000 rpm for 10 minutes. Supernatant was filtered through a 0.22 μm filter and 100 μL of water was added. For SN-38 and SN-38-glucuronide detection, 10 μL samples were injected on a liquid chromatographic system coupled to a fluorescence detector. Time-course experiments were realized to determine the linearity of the glucuronidation reaction.
A liquid chromatographic method was developed to quantify SN-38 glucuronidation of UGT cell line-derived microsomes and human liver microsomes. Samples were analyzed using high performance liquid chromatography (Alliance 2695, Waters, Milford, Mass.). […] At a constant flow rate (0.7 ml/min), a linear gradient from 20 to 65% B was run over 3 min, held 0.8 min and a second gradient until 95% of B was run over 2 min and then re-equilibrated to 20% B over 2 min. The effluent from the HPLC system (Alliance 2695) was connected directly to a fluorescence detector (Waters, Milford, Mass.) using an excitation wavelength of […] and an emission of 460 nm. […] Determination of the glucuronidation rates obtained with other substrates was performed as currently known in the art.
Microsomal fractions from HEK293 (40 to 60 μg) were added to a reaction mixture (100 μL) containing 50 mM Tris-HCl, pH 7.3, 10 mM MgCl2, 100 μg/mL phosphatidylcholine and 2 mM UDP-glucuronic acid. […] Commercially available human liver microsomes (Human Cell Culture Center Inc., Laurel, Md.) were incubated in the same conditions for all experiments. Time-course experiments were performed to determine the linearity of the glucuronidation reaction. For the determination of Vmax and Km. HEK293 cells stably expressing UGT1A9 enzymes were incubated in the presence of various concentrations of SN-38 ranging from 0.1 to 200 μM and incubated for 30 min as described above whereas UGT1A7 membranes preparations were incubated for 3 hours. […] Reactions with SN-38 were stopped by the addition of 200 μL MeOH+1% HCl 2N, followed by centrifugation at 14000×g for 10 minutes. The supernatants were filtered through a 0.22 μm membrane and 100 μL of water was added to the filtrate. For the detection of SN-38 and its glucuronide (SN-38G), 10 μL samples were injected in a liquid chromatographic system (HPLC) coupled to fluorescence detector as described below.
A HPLC method was developed to quantify the rates of SN-38 glucuronidation from the various microsomal fractions under study. The HPLC system used was an Alliance 2695 (Waters, Milford, Mass.) equipped with a 50×3.2 mm Colombus C18 column (Phenomenex, Torrance, Calif.). […] Then a second gradient ranging from 65% to 95% solvent B was generated during the following 2 min. Finally, the column was re-equilibrated to 20% solvent B for 2 min. The column was connected to a fluorescence detector model 474 (Waters, Milford, Mass.) and the molecules were excited at a wavelength of 370 nm and an emission of 425 nm.

[1] = threonine at position 33, versus UGT1A9*1

Q: With `CCc1c2c(nc3ccc(O)cc13)-c1cc3c(c(=O)n1C2)COC(=O)[C@]3(O)CC` [SN-38, 7-ethyl-10-hydroxycamptothecin] as the compound, how does the “SN-38 glucuronidating activity of the allele (in words)” value (UGT1A7*1) read?
A: Its value is “highest”.

Q: What about the “Function (SN-38G formation versus *1 allele)” value (UGT1A7*1; in vitro experiments) of the same compound?
A: The value was “High”.

Q: What about the “residual activity compared to the wild type enzyme (SN-38G formation)” value (human UGT1A9*3; 5 μM of SN-38) of the same compound?
A: The value was 3.8%.

Q: And the “Vmax values lower for UGT1A9*3 compared with UGT1A9*1” value (human UGT1A9*3; SN-38 glucuronidation)?
A: The value was “about 26 times”.

Q: What about the Vmax (human UGT1A9*3; SN-38 glucuronidation, 0.1 to 200 μM, mean±SD) of the same compound?
A: The Vmax was 11.89±2.61 pmol/min/mg protein.

Q: What about the Km (human UGT1A9*3; SN-38 glucuronidation, Table 5) of the same compound?
A: The Km was 3.21 ± 0.95 µM.

Q: And the Vmax (human UGT1A9*3; SN-38 glucuronidation, Table 5)?
A: The Vmax was 15.50 ± 8.40.

Q: What about the “SN-38 glucuronidating activity of the allele (in words)” value (human UGT1A9*3; in vitro functional genomic assays) of the same compound?
A: The value was “low”.

Q: And the Km (human UGT1A9*3; read-out: Apparent Km, SN-38 glucuronidation, 0.1 to 200 μM, mean±SD, Lineweaver-Burk)?
A: The Km was 3.21 ± 0.95 µM.

Q: And the “decrease of glucuronidation rate” value (human UGT1A9*3; [1])?
A: Its value is “approximately 20 folds”.

Q: What about the “decreased conjugation rate for SN-38” value (human UGT1A9*3; [1]) of the same compound?
A: The value was 96.3%.

Q: What about the “effect of codon 33 variation on affinity of the protein for the substrate (in words)” value (human UGT1A9*3; versus UGT1A9*1) of the same compound?
A: Its value is “does not affect significantly”.
